Target: T1, Syk catalytic domain (aa 356-635 with a C-terminal His-tag) (Homo sapiens, UniProt P43405)
T1 construct: His-tag (C); made in house
Assay: In vitro Syk kinase activity measured by trFRET, Syk catalytic domain
Assay type: biochemical
Settings: Syk catalytic domain (aa 356-635), trFRET, 0.001 mM ATP
Procedure: In Vitro Syk Kinase Activity Measured by Time-Resolved Fluorescence Resonance Energy Transfer (trFRET)
0.14 nM purified Syk catalytic domain (aa 356-635 with a C-terminal His-tag purified in-house by immobilized metal ion affinity chromatography) was mixed with 0.2 μM peptide substrate (biotin-TYR1, Sequence: Biotin-(Ahx)-GAEEEIYAAFFA-COOH) at varying inhibitor concentrations in reaction buffer: 50 mM MOPSO pH 6.5, 10 mM MgCl2, 2 mM MnCl2, 2.5 mM DTT, 0.01% BSA, 0.1 mM Na3VO4 and 0.001 mM ATP. After about 60 min incubation at rt, the reaction was quenched by addition of EDTA (final concentration: 100 mM) and developed by addition of revelation reagents (final approximate concentrations: 30 mM HEPES pH 7.0, 0.06% BSA, 0.006% Tween-20, 0.24 M KF, 80 ng/mL PT66K (europium labeled anti-phosphotyrosine antibody cat #61T66KLB Cisbio, Bedford, Mass.) and 0.6 μg/mL SAXL (Phycolink streptavidin-allophycocyanin acceptor, cat #PJ255, Prozyme, San Leandro, Calif.). The developed reaction was incubated in the dark either at about 4° C. for about 14 h or for about 60 min at rt, then read via a time-resolved fluorescence detector (Rubystar, BMG) using a 337 nm laser for excitation and monitoring emission wavelengths at 665 nm. Within the linear range of the assay, the observed signal at 665 nm was directly related to phosphorylated product and can be used to calculate the IC50 values.
MOPSO buffer contains: 50 mM MOPSO pH 6.5, 10 mM MgCl2, 2 mM MnCl2, 2.5 mM DTT, 0.01% BSA, and 0.1 mM Na3VO4 HEPES buffer contains: 50 mM HEPES pH 7.1, 2.5 mM DTT, 10 mM MgCl2, 2 mM MnCl2, 0.01% BSA, and 0.1 mM Na3VO4 MOPS buffer contains: 20 mM MOPS pH 7.2, 10 mM MgCl2, 5 mM EGTA, 5 mM Beta-phosphoglycerol, 1 mM Na3VO4, 0.01% Triton-X-100 and 1 mM DTT
Biotin-TYR1-peptide sequence: Biotin-(Ahx)-GAEEEIYAAFFA-COOH Biotin-TYR2-peptide sequence: Biotin-(Ahx)-AEEEYFFLFA-amide KinEASE 51 peptides were purchased from Cisbio (cat #62ST0PEB, Bedford, Mass.)
PT66K was purchased from Cisbio (cat #61T66KLB, Bedford, Mass.) EuSTK was purchased from Cisbio (cat #62ST0PEB, Bedford, Mass.) SAXL was purchased from Prozyme (cat #PJ25S, San Leandro, Calif.) Human T-Blasts IL-2 pSTAT5 Cellular Assay

SMILES | IC50 [nM]
COC(=O)Cn1cc(-c2nc(C)n3c2cnc2[nH]ccc23)cn1 [Example 12, Methyl 2-(4-(1-methyl-6H-imidazo[1,5-a]pyrrolo[2,3-e]pyrazin-3-yl)-1H-pyrazol-1-yl)acetate] | 100 to 1000
CN(C)CC(=O)NCc1cccc(-c2cc3c(ncc4cnn(C)c43)[nH]2)c1 [J.1.1.1] | 100 to 1000
COCCC(=O)NCc1cccc(-c2cc3c(ncc4cnn(C)c43)[nH]2)c1 [J.1.1.2] | 100 to 1000
Cn1ncc2cnc3[nH]c(-c4cccc(CNC(=O)CCN5CCOCC5)c4)cc3c21 [J.1.1.3] | 100 to 1000
CCCCC(=O)NCc1cccc(-c2cc3c(ncc4cnn(C)c43)[nH]2)c1 [J.1.1.4] | 100 to 1000
COc1ccc(-c2nc(C(=O)NCCO)n3c2cnc2[nH]ccc23)cc1 [J.1.2.1] | < 100
Cc1nc(-c2ccc(C3(O)CCN(C(=O)CC#N)CC3)cc2)c2cnc3[nH]ccc3n12 [J.1.3.1] | < 100
CN(C)C(=O)c1ccc2c(-c3cc4c(ncc5cnn(C)c54)[nH]3)cn(C)c2c1 [J.1.4.1] | < 100
Cn1cc(-c2cc3c(ncc4cnn(C)c43)[nH]2)c2ccc(C(=O)NCC(C)(C)CO)cc21 [J.1.4.2] | < 100
Cn1cc(-c2cc3c(ncc4cnn(C)c43)[nH]2)c2ccc(C(=O)NC(C)(C)CO)cc21 [J.1.4.3] | < 100
CC(=O)c1ccc(-c2cc3c(ncc4cnc(C(=O)N5CCCC5)n43)[nH]2)cc1 [J.1.5.1] | < 100
CC(=O)c1ccc(-c2cc3c(ncc4cnc(C(=O)NCCN(C)C)n43)[nH]2)cc1 [J.1.5.2] | 100 to 1000
CCCNC(=O)c1ccc(-c2nc(C)n3c2cnc2[nH]ccc23)cc1Cl [J.1.6.1] | 100 to 1000
CCCNC(=O)c1cc(-c2nc(C)n3c2cnc2[nH]ccc23)ccc1OC [J.1.7.1] | 100 to 1000
COc1ccc(-c2nc(C)n3c2cnc2[nH]ccc23)cc1C(=O)NCCN(C)C [J.1.7.2] | 100 to 1000
COc1ccc(-c2nc(C)n3c2cnc2[nH]ccc23)cc1C(=O)NCCO [J.1.7.3] | 100 to 1000
COc1ccc(-c2nc(C)n3c2cnc2[nH]ccc23)cc1C(N)=O [J.1.7.4] | 100 to 1000
Cn1cc(-c2cc3c(ncc4cnn(C)c43)[nH]2)c2cc(C(=O)NCCN3CCOCC3)ccc21 [J.1.8.1] | < 100
CN(C)CCNC(=O)c1ccc2c(c1)c(-c1cc3c(ncc4cnn(C)c43)[nH]1)cn2C [J.1.8.2] | 100 to 1000

SMILES | IC50 [nM]
Cn1cc(-c2cc3c(ncc4cnn(C)c43)[nH]2)c2cc(C(=O)N3CCC(CO)CC3)ccc21 [J.1.8.3] | < 100
CN(C)C(=O)c1ccc2c(c1)c(-c1cc3c(ncc4cnn(C)c43)[nH]1)cn2C [J.1.8.4] | < 100
CN(CC(C)(C)CO)C(=O)c1ccc2c(c1)c(-c1cc3c(ncc4cnn(C)c43)[nH]1)cn2C [J.1.8.5] | < 100
CN1CCN(C(=O)CNC(=O)c2ccc3c(c2)c(-c2cc4c(ncc5cnn(C)c54)[nH]2)cn3C)CC1 [J.1.8.6] | < 100
Cn1cc(-c2cc3c(ncc4cnn(C)c43)[nH]2)c2cc(C(=O)NCCO)ccc21 [J.1.8.7] | < 100
COc1ccc2c(c1)c(-c1cc3c(ncc4cnc([C@@H]5CCN(C(C)=O)C5)n43)[nH]1)cn2C [J.2.1.1] | 100 to 1000
CC(=O)N[C@H]1CC[C@@H](c2ncc3cnc4[nH]c(-c5cccc(S(C)(=O)=O)c5)cc4n23)C1 [J.2.1.2] | 100 to 1000
CC(=O)NCCCc1ncc2cnc3[nH]c(-c4cnn(C)c4)cc3n12 [J.2.1.3] | 100 to 1000
CC(=O)NC(C)(C)c1ccc(-c2nc(C3CCCCC3)n3c2cnc2[nH]ccc23)cc1 [J.2.1.4] | < 100
CC(=O)N1CC=C(c2ncn3c2cnc2[nH]ccc23)CC1 [J.2.1.5] | 1000 to 10000
CC(=O)N1CCC(O)(c2ccc(-c3nc(C)n4c3cnc3[nH]ccc34)cc2)CC1 [J.2.1.6] | < 100
COc1ccc(-c2nc([C@H]3CCC[C@@H](NC(C)=O)C3)n3c2cnc2[nH]ccc23)cc1 [J.2.1.7] | 100 to 1000
CC(=O)NCc1nc(-c2ccc(C(C)(C)O)cc2)c2cnc3[nH]ccc3n12 [J.2.1.8] | 100 to 1000
COc1ccc2c(c1)c(-c1cc3c(ncc4cnc([C@@H]5CC[C@H](NC(C)=O)C5)n43)[nH]1)cn2C [J.2.1.9] | < 100
Cn1cc(-c2cc3c(ncc4cnn(C)c43)[nH]2)c2cc(C(=O)NC(C)(C)CO)ccc21 [J.2.2.1] | < 100
Cn1cc(-c2cc3c(ncc4cnn(C)c43)[nH]2)c2cc(C(=O)NCC(C)(C)CO)ccc21 [J.2.2.2] | < 100
CCOCCCNC(=O)Cn1cccc1-c1cc2c(ncc3cnn(C)c32)[nH]1 [J.2.3.1] | 1000 to 10000
Cn1ncc2cnc3[nH]c(-c4cccn4CC(=O)N4CCOCC4)cc3c21 [J.2.3.2] | 1000 to 10000
CN1CCN(C(=O)Cn2cccc2-c2cc3c(ncc4cnn(C)c43)[nH]2)CC1 [J.2.3.3] | > 10000

SMILES | IC50 [nM]
Cn1ncc2cnc3[nH]c(-c4cccc(CNS(C)(=O)=O)c4)cc3c21 [K.1, N-(3-(1-Methyl-1,6-dihydropyrazolo[3,4-d]pyrrolo[2,3-b]pyridin-7-yl)benzyl)methanesulfonamide] | 100 to 1000
COc1ccc2c(c1)c(-c1cc3c(ncc4cnc([C@@H]5CC[C@H](NS(=O)(=O)C6CC6)C5)n43)[nH]1)cn2C [K.1.1] | < 100
COc1ccc2c(c1)c(-c1cc3c(ncc4cnc(C(F)(F)F)n43)[nH]1)cn2C [L.1.1, 7-(5-Methoxy-1-methyl-1H-indol-3-yl)-1-(trifluoromethyl)-6H-imidazo[1,5-a]pyrrolo[2,3-e]pyrazine] | 100 to 1000
COc1ccc2c(c1)c(-c1cc3c(ncc4cnc(C5CCCOC5)n43)[nH]1)cn2C (stereo not drawn) [M.1, 7-(5-Methoxy-1-methyl-1H-indol-3-yl)-1-(tetrahydro-2H-pyran-3-yl)-6H-imidazo[1,5-a]pyrrolo[2,3-e]pyrazine] | < 100
COc1ccc2c(c1)c(-c1cc3c(ncc4cnc(CC(F)(F)F)n43)[nH]1)cn2C [M.1.1] | < 100
CS(=O)(=O)c1cccc(-c2cc3c(ncc4cnc(C(F)(F)F)n43)[nH]2)c1 [M.1.2] | 100 to 1000
Cc1ncc2cnc3[nH]c(-c4cccc(S(C)(=O)=O)c4)cc3n12 [M.1.3] | < 100
CS(=O)(=O)c1cccc(-c2cc3c(ncc4cnc(CCCNC(=O)C(F)(F)F)n43)[nH]2)c1 [M.1.4] | 100 to 1000
CS(=O)(=O)c1cccc(-c2cc3c(ncc4cnc(C5CCCOC5)n43)[nH]2)c1 (stereo not drawn) [M.1.5] | 100 to 1000
CS(=O)(=O)c1cccc(-c2cc3c(ncc4cnc(C5CCC(O)C5)n43)[nH]2)c1 (stereo not drawn) [M.1.6] | 100 to 1000
COc1ccc2c(c1)c(-c1cc3c(ncc4cnc(CCCO)n43)[nH]1)cn2C [M.1.7] | < 100
COc1ccc2c(c1)c(-c1cc3c(ncc4cnc(N(C)C)n43)[nH]1)cn2C [M.1.8] | < 100
CCc1c(-c2ccc(C(C)(C)O)cc2)[nH]c2ncc3cnc(C)n3c12 [M.1.9] | 100 to 1000
COc1ccc2c(c1)c(-c1cc3c(ncc4cnc(C5CCOCC5)n43)[nH]1)cn2C [M.1.10] | < 100
Cc1ncc2cnc3[nH]c(-c4cccc(C(=O)NCCN5CCOCC5)c4)cc3n12 [M.1.11] | 100 to 1000
Cc1nnc2cnc3[nH]c(-c4cnn(C)c4)cc3n12 [M.1.12] | 1000 to 10000
COc1ccc2c(c1)c(-c1cc3c(ncc4cnc(CCC#N)n43)[nH]1)cn2C [M.1.13] | < 100
COCCCc1ncc2cnc3[nH]c(-c4cn(C)c5ccc(OC)cc45)cc3n12 [M.1.14] | < 100
CNc1ncc2cnc3[nH]c(-c4ccc(C)cc4)cc3n12 [M.1.15] | 100 to 1000

Reference: patent US20140349970A1 (ABBVIE INC., priority 2009, published 2014)
